According to patent US12091378B2, “Therapeutics for central nervous system disorders” (1GLOBE BIOMEDICAL CO., LTD., priority 2017, dated 2024):
Structures can show the parent of a compound that is named as a salt.

Columns and labels:
[1] = system: adult cerebellar granule neurons (CGN); assay: Adult CGN survival (Cell Counting Kit-8); type: cell-based, mice; settings: 50 μM and 10 μM, 48 hours
Procedure: CGN cells from 8 week-old female mice (C57BL/6) were maintained in neurobasal medium with B27 supplements. 2×10^5 cells were plated in each well of a PLL-coated 48 well plate with 400 μl of culture medium. Various embodiments of novel compounds of the invention at 50 μM (FIG. 8A) and 10 μM (FIG. 8B), CNTF (10 ng/mL) or DMF (50 μM) were added respectively into the cell culture samples for 48 hours. Cell counting solution (Cell Counting Kit-8, Dojindo, 40 μL) was added to the culture, and cells were incubated at 37° C. with 5% CO2 for 20 hours. The optical densities (OD) of absorbance at 450 nm were measured with SpectraMax M3 plate reader.

CPZ-induced axon damage [2] = assay: Therapeutic treatment of CPZ-induced axon damage in vivo (silver staining); design: species or system mice; settings: score 0 no axon damage, 4 complete axon damage, average ± SEM
Source text: Schematic of this study is depicted in FIG. 13A. Eight-week old female mice were fed a diet containing 0.3% (w/w) of CPZ to induce demyelination for 6 weeks. The control mice received regular mouse chow. The CPZ fed mice received oral gavage of formulation (Vehicle), DMF or Compound 1 at the beginning of week 6 for two weeks. At the end of treatment, the brains were collected, and post fixed, processed for morphological analysis. The axons were stained with Bielschowsky's Silver staining. Representative images of silver staining of mouse brain sections are shown in FIG. 13B where midline corpus callosum (CC) is delineated by white squares in the top panels (scale bar: 200 μm) and then shown at higher magnification in the lower panels (scale bar: 25 μm). Quantitative analysis of axon damage of silver staining is shown in FIG. 13C where axon damage is scored as follows: a score of 0 means no axon damage, and a score of 4 means complete axon damage. **p<0.01, ***p<0.001 compared with CPZ plus vehicle; ##p<0.01 compared with CPZ plus DMF (n=4-6 mice).
(§1) According to the above Examples 12 and 13, the therapeutic effects of Compound 1 and DMF on CPZ-induced demyelination and axon damage were summarized below where quantitative analysis of myelination and axon integrity in adult female mice was performed and results shown in Table 1. The scoring of myelination and axon damage was performed as described in Example 12 and Example 13. The treatments are as indicated. The average scores and SEM are shown. Statistic differences were analyzed by one way ANOVA followed by Tukey test. *p<0.05, **p<0.01, […] compared with normal control; #p<0.05, ##p<0.01, ###p<0.001 compared with CPZ plus vehicle, §§p<0.01 compared with CPZ plus DMF at 10 mg/kg (n=4-6 mice).

[3] = system: CPZ-induced demyelination; assay: Therapeutic treatment of CPZ-induced demyelination in vivo (LFB staining); design: species or system mice; settings: for Demyelination (Score of LFB staining): score 0 complete myelination, 4 complete demyelination, average ± SEM; for recovery from CPZ-induced demyelination and axon damage: therapeutic treatment, Examples 12 and 13
Procedure: As shown in FIGS. 12A-12C, the compound of the present invention was also tested in vivo to determine its therapeutic effect on promoting remyelination on CPZ-induced demyelination in comparison to DMF. Schematic of the study is depicted in FIG. 12A. Eight-week old mice were fed a diet containing 0.3% (w/w) of CPZ to induce demyelination for 6 weeks. The control mice received regular mouse chow. The CPZ fed mice received oral gavage of formulation (Vehicle), DMF or Compound 1 at the beginning of week 6 for two weeks. At the end of treatment, the brains were collected and, post fixed, processed for analysis. The myelin was stained with LFB stain. Representative images of LFB staining of mouse brain sections are shown in FIG. 12B where midline corpus callosum (CC) is delineated by squares in the top panels (scale bar: 200 μm) and then shown at higher magnification in the lower panels (scale bar: 25 μm). Quantitative analysis of myelination of LFB staining is shown in FIG. 12C where myelination is scored as follows: a score of 0 means complete myelination and a score of 4 means complete demyelination. *p<0.05, *** p<0.001 compared with CPZ with vehicle treatment (n=4-6 mice).
as §1

cerebellar slices [4] = assay: Remyelination on CPZ-induced demyelination in cerebellar slices (MBP immunofluorescence); type: cell-based, mice; settings: 50 μM, 3 days in culture
Procedure: Specifically, cerebellar slices from 8 week-old female mice were treated with cuprizone (CPZ) to induce demyelination, and then treated with representative compound of the invention Compound 1 (50 μM) for 3 days in culture. The slices were processed for immunofluorescence staining with anti-MBP antibody. The images were captured with Nikon eclipse TE2000 microscope using Spot Advanced software (version 4.3) at 4×magnification. The fluorescence intensity of MBP of the cerebellar slice in each image was measured with NIH Image J.

MBP, NF, APP, GFAP, Iba1 = assay: Molecular markers for myelination, axon integrity and glia activation in brain sections (immunofluorescence); type: in vivo, mouse; settings: CPZ + 10 mg/kg, trend versus CPZ
Procedure: Effects of Compound 1 on molecule markers relevant to myelination, axon integrity and gliosis were also examined in the brain sections from normal control, CPZ-treated, and CPZ plus Compound 1 treated animals. Molecules in mouse brain sections were stained with respective antibodies by immunofluorescence. The fluorescent intensity of MBP- and NF-labeled fibers were measured with Image J. The number of specific antibody-stained cells in 400×microscopic fields were counted. Although statistic analysis is still in progress, the trends of the effects are clear from the images available so far.

IGF-2 = IGF-2 in plasma of CPZ MS animal model (ELISA); type: in vivo; settings: 10 mg/kg oral gavage for 7 weeks, CPZ fed mice
Source text: IGF2 is a neurotrophic factor which is essential for the development and regeneration of the nervous system, and plays a pivotal role in adult neurogenesis and cognitive function (see Fernadez A M and Torres-Aleman I, 2007, Nat Rev Neurosci 13(4):225-39; Iwamoto T and Ouchi Y, 2014, Rev Neurosci 25(4):559-74). […] FIG. 11A illustrates the schematic of the study. Experimental setup was similar to that in Example 9: eight-week old female mice were fed a diet containing 0.3% (w/w) of CPZ to induce demyelination for 6 weeks. The control mice received regular mouse chow. In the meantime, CPZ fed mice received oral gavage of formulation (Vehicle) or Compound 1 (10 mg/kg) for 7 weeks. At the end of treatment, the plasma was collected and processed for analysis. The levels of IGF-2 in mouse plasma were measured using ELISA. The scatter plot of IGF-2 concentrations found in individual mice is shown in FIG. 11B. **p<0.01 of CPZ plus Compound 1-treated group compared with control (Ctl), or CPZ-treated group (n=4).

EAE mouse model = assay: Clinical score of mouse EAE model (pilot study); type: in vivo, C57/BL6 mice; settings: 10 mg/ml daily from EAE onset for 20 days
Procedure: EAE mouse model was induced by inoculation of MOG35-55 protein in adult C57/BL6 mice. Mean clinical score of EAE mice treated with vehicle or Compound 1 (10 mg/ml) for a duration of 42 days after immunization was shown in FIG. 14. The treatments were applied daily from the date of EAE onset for 20 days.

cerebellar slices [5] = assay: Remyelination on LPC-induced demyelination in cerebellar slices (MBP immunofluorescence); type: cell-based, mice; settings: 50 μM, 3 days in culture, LPC 2 mg/mL
Procedure: Specifically, cerebellar slices from 8 week-old female mice were treated with lysophosphatidylcholine (LPC, 2 mg/mL) to induce demyelination, and then treated with representative compound of the invention, Compound 1 (50 μM), for 3 days in culture. The slices were processed for immunofluorescence staining with anti-MBP antibody. The images were captured with Nikon eclipse TE2000 microscope using Spot Advanced software (version 4.3) at 4×magnification.

[6] = system: CPZ-induced demyelination; assay: Prophylactic treatment of CPZ-induced demyelination in vivo (LFB staining); design: species or system mice; settings: 10 mg/kg oral gavage for 7 weeks, formulations HPC or GHI F505-1
Procedure: As shown in FIGS. 9A-9C, the compound of the present invention (Compound 1) was able to prevent CPZ-induced demyelination in adult female mice. FIG. 9A illustrates the schematic of the study. Eight-week old female mice were fed a diet containing 0.3% (w/w) of CPZ to induce demyelination for 6 weeks. The control mice received regular mouse chow. In the meantime, CPZ fed mice received oral gavage of formulation (Vehicle) or Compound 1 (10 mg/kg) for 7 weeks. At the end of the treatment, mice were perfused, and the brains were collected and processed for analysis. The extent of myelination was examined by staining with Luxol Fast Blue (LFB). Representative images of LFB staining of mouse brain sections are shown in FIG. 9B where midline corpus callosum (CC) is delineated by dotted squares in the top panels (scale bar: 200 μm) and then shown at higher magnification in the lower panels (scale bar: 25 μm). Myelinated axons in the CC from mice fed with normal chow are stained as compacted blue (shown here as gray-colored, same for all following blue-colored pictures). […] Quantitative analysis of myelination of LFB staining is shown in FIG. 9C where myelination is scored as follows: a score of 0 means complete myelination and a score of 4 means complete demyelination. […]

Microglia = assay: LPS/IFN-induced microglia activation (Iba1 positive cells); type: cell-based, mice; settings: 50 μM, LPS 10 ng/mL and IFN 20 ng/ml, 48 hours
Procedure: Microglia from P7 mice were treated with lipopolysaccharide (LPS, 10 ng/mL) and Interferon-gama (IFN, 20 ng/ml) to induce activation of microglia for 48 hours. To determine the effects on LPS/IFN-induced microglia activation, DMF or various embodiments of compounds of the invention (all at 50 μM) were individually added into separate culture samples 30 minutes after LPS/IFN were added. Cells were later fixed and processed for immunofluorescence (IF) staining with anti-Iba1 (ionized calcium-binding adaptor molecule 1) antibody. The number of Iba1 positive cells and the total number of cells (Hochest H33342 positive cells which includes dead and live cells) were quantified from 12 consecutive areas under fluorescent microscope with 20×objective.

CPZ-induced axon damage [7] = assay: Prophylactic treatment of CPZ-induced axonal damage in vivo (Bielschowsky's silver staining); design: species or system mice; settings: 10 mg/kg oral gavage for 7 weeks, formulations HPC or GHI F505-1
Source text: The mice were fed and treated with the same method as Example 9. The Bielschowsky's silver staining was used to visualize axon fiber in mouse brains. Representative images of silver staining of mouse brains sections are shown in FIG. 10A where midline corpus callosum (CC) is delineated by dotted squares in the top panels (scale bar: 200 μm) and then shown at higher magnification in the lower panels (scale bar: 25 μm). While a linear staining pattern of continuous axon fibers is present in normal control CC, axon damage with interruption of axon fibers and demyelination is observed in the CC of CPZ-treated animals. […] Quantitative analysis of silver-stained axons is shown in FIG. 10B where axon damage is scored as follows: a score of 0 means no axon damage and a score of 4 means complete axon damage. Columns “10-A” and “10-B” indicate samples treated with Compound 1 at 10 mg/kg in formulations HPC or GHI F505-1, respectively. *p<0.05, ***p<0.001 compared with control; ## p<0.01 compared with CPZ with vehicle treatment (n=4 mice).

[8] = 10 mg/kg oral gavage for two weeks
[9] = 0.1 mg/kg oral gavage for two weeks

| Structure (SMILES) | effect on adult CGN survival [1] | Axon damage (Score of Silver staining) (CPZ-induced axon damage [2]; [8]) | Demyelination (Score of LFB staining) [3, 8] | recovery from CPZ-induced demyelination and axon damage [3] | remyelination on CPZ-induced demyelination (MBP fluorescence intensity) (cerebellar slices [4]) | APP (Axonal damage) (MBP, NF, APP, GFAP, Iba1) | GFAP (Astrogliosis) (MBP, NF, APP, GFAP, Iba1) | Iba 1 (Activated microglia) (MBP, NF, APP, GFAP, Iba1) | MBP (Myelin) (MBP, NF, APP, GFAP, Iba1) | NF (Neural fibers) (MBP, NF, APP, GFAP, Iba1) | level of IGF-2 in mouse plasma (IGF-2) | Axon damage (Score of Silver staining) (CPZ-induced axon damage [2]; [9]) | Demyelination (Score of LFB staining) [3, 9] | persistence of effect on clinical score after termination of treatment (EAE mouse model) | average clinical scores versus vehicle (EAE mouse model; 42 days after immunization, n=5) | remyelination on LPC-induced demyelination (MBP fluorescence intensity) (cerebellar slices [5]) | prevention of CPZ-induced demyelination (LFB staining) [6] | inhibiting microglia activation (Iba1 positive cells) (Microglia) | prevention of CPZ-induced axon damage (silver staining) (CPZ-induced axon damage [7]) |
| --- | --- | --- | --- | --- | --- | --- | --- | --- | --- | --- | --- | --- | --- | --- | --- | --- | --- | --- | --- |
| COC(=O)/C=C/C(=O)OC [DMF, dimethyl fumarate, reference compound] | little effect | 2.25 ± 0.25 | 2.25 ± 0.25 | not significant | – | – | – | – | – | – | – | – | – | – | – | – | – | – | – |
| COC(=O)/C=C/C(=O)OCc1ccc(COC(=O)NC(=N)NC(=N)N(C)C)cc1 [Compound 1] | – | 0.83 ± 0.31 | 1.33 ± 0.21 | robust recovery | promotes remyelination | ↓ | ↓ | ↓ | ↑ | ↑ | significantly increase | 1.33 ± 0.21 | 2.00 ± 0.26 | persisted for over two weeks after termination of treatment | significantly lower average clinical scores | strong remyelination effects | prevents CPZ-induced demyelination | significantly better efficacy in comparison to DMF | preserved the continuous staining pattern of axon fibers |
| COC(=O)/C=C/C(=O)OCCCCCCOC(=O)NC(=N)NC(=N)N(C)C [Compound 2] | – | – | – | – | – | – | – | – | – | – | – | – | – | – | – | – | – | significant capability for inhibiting microglia activation | – |
